Measured values reported in US20190202774A1, “BIARYL COMPOUNDS AS ANTIMICROBIAL AND CHEMOTHERAPEUTIC AGENTS” (priority 2015, published 2019).
Values after ≈ are worked out from the molar mass of the structure shown. “Also recorded” adds a separate entry of the source. Counter-ions that a name gives are not always drawn. Like-named read-outs stand apart in the source and are kept apart here.

Tests used:
[1] = test system: MRSA strain USA300; test: DiSC3(5) membrane permeabilization; format: cell-based, Staphylococcus aureus; conditions: positive control, 100 nM
Description: Biaryl compounds and their analogues have been reported to be membrane active agents (Isnansetyo and Kamei, 2003 and Kamei et al., 2003). An experiment was performed to verify the membrane permeabilization activity of biaryl compound. C58 using a fluorescent dye, 3,3′-Dipropylthiacarbocyanine iodide (DiSC3(5)). The fluorescence signal from DiSC3(5) is in a quenched state when it interacts with the hydrophobic region of the cell membrane. Upon disruption of the membrane, DiSC3(5) is released and regains its fluorescent activity, which is measured as a fluorescence signal (RFU).

[2] = test system: H2073; test: Lung cancer cell survival, H2073; format: cell-based; conditions: 72 hour incubation, non-linear curve fit
Description: (§1) The IC50 values generated using a non-linear curve fit with lung cancer cell lines, A549, H460, H2122, and H2073 are listed in Table 10. Experiments were performed using C58, C58-2, C59, C59-2, C119, and acetylated C119 (C119-2). […] Additionally, these concentrations are clinically achievable for treatment of lung cancer and a detailed structure activity relationship experiments needs to be performed to identify promising anticancer candidates.

[3] = test system: A549; test: Lung cancer cell survival, A549; format: cell-based; conditions: 72 hour incubation, non-linear curve fit
Description: as §1

[4] = test system: H2122; test: Lung cancer cell survival, H2122; format: cell-based; conditions: 72 hour incubation, non-linear curve fit
Description: as §1

[5] = test system: H460; test: Lung cancer cell survival, H460; format: cell-based; conditions: 72 hour incubation, non-linear curve fit
Description: as §1

[6] = test system: human lung airway epithelial cells (16HBE); conditions: 24-h incubation, non-linear curve fit
Description: Finally, toxicity of biaryl compounds was tested against human lung airway epithelial cells (16HBE), human dermal fibroblasts, and J774.A1 murine macrophages using an ALAMARBLUE® Cell Viability Assay. Biaryl compounds, C58, acetylated C58 (C58-2), C59, C59-2, C59Na, and C59Li were incubated with cells for 24 hours and an ALAMARBLUE® Cell Viability Assay was performed to determine cell viability relative to untreated controls (FIGS. 13A-13C). Cell viability curves were analyzed using non-linear curve fit to yield the inhibitory concentration at median cell survival (LD50) for all cell lines (Table 3).
Next, the toxicity of lead candidates was tested against human lung airway epithelial cells (16HBE) and human dermal fibroblasts (HDF) using an alamarBlue® Cell Viability Assay.

[7] = test system: MRSA strains USA300, 0606, 0608, 0634, 0641, and 0646; test: MIC/MBC against six MRSA strains (variants of C58/C59, pH, DMSO); format: cell-based, Staphylococcus aureus
Description: Six MRSA strains, USA300, 0606, 0608, 0634, 0641, and 0646 were chosen based on their activity against biaryl compounds and vancomycin to determine structure-activity relationship of biaryl compounds. The effect of phenolic group on the activity of biaryl compounds was tested by modifying C59. First, the phenolic group was protected by acetylation to yield an acetylated C59 (C59-2) (FIG. 7B). Additional variants of C59, in the form of sodium and lithium salts were synthesized by incubation with sodium hydroxide and lithium hydroxide (FIGS. 7C and 7D). Antimicrobial activity of these deprotonated, water-soluble sodium (C59Na) and lithium (C59Li) salts, and acetylated derivative of C59 was tested against 6 MRSA strains and compared to the parent compound, C59 (FIGS. 8A-8D). Results from this comparative experiment indicate the contribution of phenolic group/phenoxide ion to the antimicrobial activity.
Further investigation into activity of these compounds under acidic pH conditions also points towards the role of phenolic group. An effective antimicrobial should be active under a wide range of pH conditions, including the physiological pH of 7.4. Localized pH in an infection is often lower than the physiological pH, and may be as low as 5.5 (Radovic-Moreno et al., 2012). Additionally, pH varies among organs (Radovic-Moreno et al., 2012). For example, pH in the bladder or on the skin is found to be between 4.5 and 8.0, or 4.0 and 5.5, respectively (Radovic-Moreno et al., 2012). […] The activity of all biaryl compounds is enhanced by at least four- to eight-fold with reduction in pH from 7.4 to 5.5.
Water soluble sodium and lithium salts of C59 (C59Na and C59Li) and their antimicrobial activity against six MRSA strains are reported above. A sodium salt of C58 (C58Na) was prepared and evaluated efficacy of this compound against these six MRSA strains. […] The poor activity of C58Na may be a result of poor stability of C58Na compared with C59Na and C59Li.

[8] = test system: erythrocytes from sheep blood; test: Hemolytic activity
Description: Toxicity of biaryl compounds was tested against erythrocytes as well as eukaryotic epithelial, dermal, and macrophage cell lines in vitro.
Toxicity of lead antimicrobial candidates was tested against erythrocytes, as well as eukaryotic epithelial and dermal cell lines in vitro.

[9] = test system: R. equi strains 701+, 701−, 703, and 5331; test: MIC/MBC broth microdilution against R. equi; format: cell-based, Rhodococcus equi
[10] = test system: 38 MRSA strains
[11] = test system: 38 MRSA strains; test: microbe, parasite or virus in culture; conditions: Staphylococcus aureus
[12] = test system: MRSA strain USA300; test: Kill kinetics with planktonic log-phase MRSA; format: cell-based, Staphylococcus aureus; conditions: log-phase USA300, 24 hours
[13] = test system: 21 S. epidermidis strains; test: MIC90/MBC90 broth microdilution against 21 S. epidermidis strains; format: cell-based, Staphylococcus epidermidis; conditions: Staphylococcus epidermidis
Text: We are currently in the process of evaluating the MICs and MBCs for 5-32.

[14] = test system: MRSA strains USA300 and SALL06; test: Kill kinetics with stationary-phase MRSA; format: cell-based, Staphylococcus aureus
[15] = test system: MRSA strains SAD05 and 0632 in a biofilm; test: MBEC High-throughput biofilm assay; format: cell-based, Staphylococcus aureus; conditions: 6 hours
[16] = test system: seven S. pneumoniae strains; test: MIC/MBC against panel of S. pneumoniae strains; format: cell-based; conditions: Streptococcus pneumoniae
Description: The activity of compounds against Gram-positive pathogens, S. pyogenes and S. pneumoniae, identified through the preliminary screen (FIG. 15) was evaluated against a panel of these pathogens.

[17] = test system: E. faecalis strains 49532 and 51575; test: MIC/MBC broth microdilution against E. faecalis; format: cell-based, Enterococcus faecalis; conditions: Enterococcus faecalis
[18] = read-out: MBC90, 38 MRSA strains, MH broth

O=C(Nc1ccc(Cl)c(Cl)c1)c1cc(Cl)cc(Cl)c1O [3,3′,4′,5-tetrachlorosalicylanilide, reference compound]
membrane disruption (DiSC3(5) fluorescence) [1]: positive membrane disruption

CC(=O)Oc1c(Br)cc(Br)cc1-c1cc(Br)cc(Br)c1OC(C)=O [C58-2]
H2073 LD50 [2]: 36 µM | A549 LD50 [3]: 74 µM | H2122 LD50 [4]: 87 µM | H460 LD50 [5]: 51 µM

[Na+].[Na+].[O-]c1c(Br)cc(Br)cc1-c1cc(Br)cc(Br)c1[O-] [C58Na]
16HBE LD50 [6]: 92.3 µg/mL | activity in the absence of DMSO versus with 2.5% DMSO [7]: at least comparable activity | antimicrobial activity (MIC and MBC) compared to the parent compound [7]: poor activity | onset of hemolysis [8]: 32 to 48 µg/mL

CC(=O)Oc1c(Cl)cc(Cl)cc1-c1cc(Cl)cc(Cl)c1OC(C)=O [C59-2]
H2073 LD50 [2]: 45 µM | antimicrobial activity (MIC and MBC) compared to the parent compound [7]: Reduction of activity | A549 LD50 [3]: 74 µM | MBC ([9]; strain 701+): 16 µg/mL (≈ 39.2 µM) | MIC ([9]; strain 701+): 4 µg/mL (≈ 9.8 µM) | MBC ([9]; strain 701−): 16 µg/mL (≈ 39.2 µM) | MIC ([9]; strain 701−): 4 µg/mL (≈ 9.8 µM) | MBC ([9]; strain 703): 16 µg/mL (≈ 39.2 µM) | MIC ([9]; strain 703): 2 µg/mL (≈ 4.9 µM) | MBC ([9]; strain 5331): 16 µg/mL (≈ 39.2 µM) | MIC ([9]; strain 5331): 4 µg/mL (≈ 9.8 µM) | H2122 LD50 [4]: 99 µM | H460 LD50 [5]: 73 µM

[Li+].[Li+].[O-]c1c(Cl)cc(Cl)cc1-c1cc(Cl)cc(Cl)c1[O-] [C59Li]
16HBE LD50 [6]: 24.4 µg/mL | activity in the absence of DMSO versus with 2.5% DMSO [7]: at least comparable activity | antimicrobial activity (MIC and MBC) compared to the parent compound [7]: enhanced activity; also recorded: superior activity over C59

Nc1c(-c2c(O)ccc3ccccc23)cc(Cl)c(Cl)c1Cl [C119]
H2073 LD50 [2]: 33 µM | A549 LD50 [3]: 52 µM | H2122 LD50 [4]: 58 µM | H460 LD50 [5]: 37 µM

CCC[C@@H]1C[C@@H](C(=O)N[C@@H]([C@H]2O[C@H](SC)[C@H](O)[C@@H](O)[C@H]2O)[C@H](C)Cl)N(C)C1 [Clindamycin hydrochloride]
MBC90 ([10]; MH broth, hydrochloride): >32 µg/mL | MIC90 ([10]; MH broth, hydrochloride): >32 µg/mL | MIC90 ([11]; 38 MRSA strains, MH broth): ≥ 32 µg/mL | MBC [11, 18]: ≥ 32 µg/mL

CCCCCCCCCC(=O)N[C@@H](Cc1c[nH]c2ccccc12)C(=O)N[C@H](CC(N)=O)C(=O)N[C@@H](CC(=O)O)C(=O)N[C@@H]1C(=O)NCC(=O)N[C@@H](CCCN)C(=O)N[C@@H](CC(=O)O)C(=O)N[C@H](C)C(=O)N[C@@H](CC(=O)O)C(=O)NCC(=O)N[C@H](CO)C(=O)N[C@@H]([C@H](C)CC(=O)O)C(=O)N[C@@H](CC(=O)c2ccccc2N)C(=O)O[C@@H]1C [Daptomycin hydrochloride]
MBC90 ([10]; MH broth): >32 µg/mL | MBC90 ([10]; cation adjusted MH broth): 2 µg/mL

CC(=O)NC[C@H]1CN(c2ccc(N3CCOCC3)c(F)c2)C(=O)O1 [Linezolid]
MIC90 ([11]; 38 MRSA strains, MH broth): 4 µg/mL (≈ 11.9 µM) | MBC [11, 18]: > 32 µg/mL

CO[C@H]1/C=C/O[C@@]2(C)Oc3c(C)c(O)c4c(O)c(c(/C=N/N5CCN(C)CC5)c(O)c4c3C2=O)NC(=O)/C(C)=C\C=C\[C@H](C)[C@H](O)[C@@H](C)[C@@H](O)[C@@H](C)[C@H](OC(C)=O)[C@@H]1C [Rifampicin, reference compound]
MBC ([9]; Rhodococcus (subgen. Prescottella) equi, strain 701+, read-out: MBC): > 192 µg/mL | MIC ([9]; Rhodococcus (subgen. Prescottella) equi, strain 701+, read-out: MIC): 0.5 µg/mL (≈ 0.608 µM) | MBC ([9]; Rhodococcus (subgen. Prescottella) equi, strain 701−, read-out: MBC): > 192 µg/mL | MIC ([9]; Rhodococcus (subgen. Prescottella) equi, strain 703): 0.125 µg/mL (≈ 0.152 µM) | MBC ([9]; Rhodococcus (subgen. Prescottella) equi, strain 703, read-out: MBC): 80 µg/mL (≈ 97.2 µM) | MIC ([9]; Rhodococcus (subgen. Prescottella) equi, strain 5331): 0.125 µg/mL (≈ 0.152 µM) | MBC ([9]; Rhodococcus (subgen. Prescottella) equi, strain 5331, read-out: MBC): 32 µg/mL (≈ 38.9 µM) | MIC ([9]; strain 701−): 0.5 µg/mL (≈ 0.608 µM)

CN[C@H](CC(C)C)C(=O)N[C@H]1C(=O)N[C@@H](CC(N)=O)C(=O)N[C@H]2C(=O)N[C@H]3C(=O)N[C@H](C(=O)N[C@H](C(=O)O)c4cc(O)cc(O)c4-c4cc3ccc4O)[C@H](O)c3ccc(c(Cl)c3)Oc3cc2cc(c3O[C@@H]2O[C@H](CO)[C@@H](O)[C@H](O)[C@H]2O[C@H]2C[C@](C)(N)[C@H](O)[C@H](C)O2)Oc2ccc(cc2Cl)[C@H]1O [Vancomycin hydrochloride, reference compound]
dose response of bacterial eradication [12]: absence of dose response | MIC90 [13]: 4 µg/mL | MBC ([13]; read-out: MBC90): 8 µg/mL | change of activity with reduction in pH from 7.4 to 5.5 ([7]; pH 7.4, 6.5, 5.5): does not exhibit any improvement | bacterial counts versus untreated controls ([14]; at 24 hours, 0.5-2.0): no difference | eradication of stationary-phase bacteria ([14]; stationary-phase USA300 and SALL06, up to 24 hours): fails to eradicate the bacterial burden completely | activity against biofilm mode bacteria [15]: Lack of activity | MBC ([16]; read-out: MBCs): 0.25 to 0.5 µg/mL | MIC ([16]; read-out: MICs): 0.25 to 0.5 µg/mL | MBC ([17]; strain 49532): > 512 µg/mL | MIC ([17]; strain 49532): 1 µg/mL | MBC ([17]; strain 51575): > 192 µg/mL | MIC ([17]; strain 51575): 192 µg/mL | MIC90 [11]: 2 µg/mL | MBC ([11]; read-out: MBC90): 16 µg/mL
